{"source": "patent US20200405687A1", "about": "“METHODS FOR THE TREATMENT OF INFECTION” (Corbus Pharmaceuticals, Inc., priority 2016, published 2020)", "key": {"[1]": {"test_system": "UV-killed Escherichia coli", "test": "Skin challenge (blister) model, intradermal UV-killed E. coli in healthy volunteers (Example 3)", "format": "in vivo, humans", "conditions": "for infiltration of neutrophils at the site of inflammation (blister exudate): 4 h and 10 h", "description": "The ability of administration of a pharmaceutical composition including ajulemic acid to treat infection was assayed in a skin challenge model. A self-resolving acute inflammatory response was triggered by the intradermal injection of UV-killed Escherichia coli into the forearm of healthy volunteers. […] This study was performed to determine whether ajulemic acid promotes the resolution of infection at the site of inflammation, thereby treating that infection.\nCells and exudates were harvested at several time points following injection of UV-killed E. coli by applying negative pressure over the inflamed site.\nThe study included four experimental groups (n=10 in each group): • 1) Placebo, twice daily for four days • 2) Ajulemic acid, 5 mg, twice daily for four days • 3) Ajulemic acid, 20 mg, twice daily for four days • 4) Prednisone, 15 mg daily for four days\nThe volunteer (healthy males, 18-50 years) were randomly allocated to one of the above three groups and orally administered the test drug for four consecutive days. On the morning of the fourth day (after intake of the first dose), experimental acute inflammation was elicited by infection with UV-killed E. coli. The drug and the placebo were provided as capsules.\nUV killed E. coli (Strain: NCTC 10418, Source: Public Health England, UK) were prepared as follows. E. coli described were grown overnight in Luria Broth (Sigma) at 37° C. The next morning, the bacteria were washed twice in sterile PBS (2500 g, 20 min, 4° C.) and resuspended in a sterile petri dish.\nBacteria were then killed by exposure to an ultraviolet light (UV) source (302 nm, ChemiDoc, trans-UV mode; Bio-Rad laboratories) for 60 min and then washed again in sterile saline. Bacterial counts were determined by optical density (OD600=0.365 equates to […] E. coli/ml). UVKEc were resuspended in a volume of sterile saline to obtain the count of 1.5×10^8/ml, aliquoted into sterile eppendorf tubes and then frozen at −80° C. until used for injections.\nAfter disinfecting and shaving the skin, 1.5×10^7 UVKEc in 100 μl saline were injected intradermally into a marked site on the volar aspect of each forearm. To characterize the treatment of infection using ajulemic acid, each forearm was allotted to one of the predefined time-points namely 4, 8, 14, 24, 48 or 72 hours (h). Thus the effects of intradermal injection of UVKEc were allowed to progress for the duration of the time-point after which a suction blister was raised over the marked injection site, and then aspirated immediately. In summary, volunteer had two injection sites, one on each forearm, and contributed to two time points. On a separate group of volunteers, blister was raised on the naïve skin and treated as the baseline time point. Study time-points were discussed with volunteers before consenting.\nLaser Doppler Imager (moor LDI-HIR, Moor Instruments Ltd, Axminster, Devon, UK) was used to quantify the blood flow at the site of infection. At predefined time points after injection of UVKEc, the forearm was placed under the scanner at a fixed distance to scan a fixed area. The scanner emits a laser beam, a portion of which is scattered by red blood cells present at the inflamed area. The scattering causes a change in frequency of the reflected light which is then detected by a photo detector. The velocity and concentration of red blood cells at the site directly affect the Doppler frequency shifts and account for the signal strength measured in arbitrary perfusion units. […] The total blood flow (measured in perfusion units) was calculated as product of number of valid pixels above background signal (Cut-off=300 perfusion units) and the mean blood flow signal over the valid pixels 11, 12.\nTo obtain the exudate from the site of infection, a 10 mm diameter suction blister was induced directly over the site of injection. […]"}, "[2]": {"test": "Phase 2 study in subjects having cystic fibrosis, acute pulmonary exacerbations and safety (Example 4)", "format": "in vivo, human", "description": "An international, multi-center, double-blinded, randomized, placebo-controlled Phase 2 study was performed in subjects having cystic fibrosis. The primary objective of the study was to test safety and tolerability of ajulemic acid in adults with cystic fibrosis who had forced expiratory volume in 1 second (FEV1) percent predicted at least 40% predicted, without regard to their CFTR mutation, infecting pathogen, or baseline treatment. Events of special interest included acute exacerbations requiring intravenous antibiotic treatment or treatment with new antibiotics.\nEighty-five subjects on stable standard-of-care medications were dosed with ajulemic acid at 21 cystic fibrosis centers in the U.S. and Europe and treated with ajulemic acid daily for a period of 84 days, with a follow-up period of 28 days. During the first part of the study (weeks 1-4) subjects were randomized to the following treatment groups: placebo (n=35), 1 mg/day ajulemic acid (n=26) or 5 mg/day ajulemic acid (n=24). During the second part of the study (weeks 5-13), subjects given ajulemic acid in the first part of the study were re-randomized to ajulemic acid 20 mg once per day (n=31) or ajulemic acid 20 mg twice a day (n=30) with 11 subjects from the placebo group also being randomized to the ajulemic acid arms. The last part of the study was a 28 day follow up period post treatment."}, "[3]": {"conditions": "1 mg/day, 5 mg/day, or 20 mg/day, respective treatment periods"}, "[4]": {"conditions": "across doses, compared to placebo"}}, "note": "“Also recorded” adds a separate entry of the source."}
{"compound": "CCCCCCC(C)(C)c1cc(O)c2c(c1)OC(C)(C)[C@@H]1CC=C(C(=O)O)C[C@@H]21", "note": "[ajulemic acid, (6aR,10aR)-1-hydroxy-6,6-dimethyl-3-(2-methyl-2-octanyl)-6a,7,10,10a-tetrahydro-6H-benzo[c]chromene-9-carboxylic acid]", "values": [{"measurement": "pro-resolving macrophages during the resolution arm of innate immune response", "setting": "[1]; 5 mg or 20 mg", "result": "increases pro-resolving macrophages"}, {"measurement": "IL-8 (pro-inflammatory cytokine) levels in inflammatory exudate", "setting": "[1]; 5 mg or 20 mg BID, 4 hr and 10 hr, multiplex ELISA, listed as Ajulemic acid", "result": "reduce"}, {"measurement": "time course of neutrophil infiltration at the site of inflammation", "setting": "[1]; 20 mg ajulemic acid group, relative to placebo", "result": "neutrophil infiltration is decreased relative to placebo"}, {"measurement": "rise in C-reactive protein (CRP) levels in serum", "setting": "[1]; after UVKEc triggered acute inflammation, multiple time points", "result": "does not appear to inhibit the rise in C-reactive protein levels"}, {"measurement": "infiltration of neutrophils at the site of inflammation (blister exudate)", "setting": "[1]; ajulemic acid 5 mg or 20 mg BID, prednisone 15 mg daily, relative to placebo", "result": "decrease in the infiltration of neutrophils"}, {"measurement": "infiltration of neutrophils at the site of inflammation (blister exudate)", "setting": "[1]; ajulemic acid 5 mg or 20 mg BID, prednisone 15 mg daily, relative to placebo, listed as Ajulemic acid", "result": "reduce"}, {"measurement": "levels of endotoxin at the site of injection", "setting": "[1]; ajulemic acid 5 mg or 20 mg BID, prednisone 15 mg daily, 4 hr and 10 hr, limulus amoebocyte lysate test", "result": "decreased levels of endotoxin; also recorded: reduces levels of endotoxin"}, {"measurement": "local vascular blood flow at injection site (laser Doppler)", "setting": "[1]; at least 20 mg AJA BID, four days", "result": "increase in local blood flow"}, {"measurement": "vasodilation", "setting": "[1]; summary of blister model results", "result": "reduce vasodilation"}, {"measurement": "Acute pulmonary exacerbations requiring a new antibiotic, Subjects", "setting": "[2]; 1 mg, N = 22, Weeks 1-4, placebo 6 (25.0)", "result": "3 (13.6) n/N at risk (%)"}, {"measurement": "Acute pulmonary exacerbations requiring intravenous antibiotics, Subjects", "setting": "[2]; 1 mg, Weeks 1-4, placebo 3 (8.6)", "result": "1 (3.8) n (% at risk)"}, {"measurement": "acute pulmonary exacerbations requiring any new antibiotic", "setting": "[2]; [3]", "result": "Reductions were also observed"}, {"measurement": "acute pulmonary exacerbations requiring intravenous antibiotics", "setting": "[2]; [3]", "result": "Reductions were also observed"}, {"measurement": "Acute pulmonary exacerbations requiring a new antibiotic, Subjects", "setting": "[2]; 5 mg, N = 23, Weeks 1-4, placebo 6 (25.0)", "result": "3 (13.0) n/N at risk (%)"}, {"measurement": "Acute pulmonary exacerbations requiring intravenous antibiotics, Subjects", "setting": "[2]; 5 mg, Weeks 1-4, placebo 3 (8.6)", "result": "1 (4.2) n (% at risk)"}, {"measurement": "Acute pulmonary exacerbations requiring a new antibiotic, Subjects", "setting": "[2]; 20 mg BID, N = 22, Post-treatment, placebo 2 (22.2)", "result": "2 (9.1) n/N at risk (%)"}, {"measurement": "Acute pulmonary exacerbations requiring a new antibiotic, Subjects", "setting": "[2]; 20 mg BID, N = 24, Weeks 5-12, placebo 9 (50.0)", "result": "2 (8.3) n/N at risk (%)"}, {"measurement": "Acute pulmonary exacerbations requiring intravenous antibiotics, Subjects", "setting": "[2]; 20 mg BID, Weeks 5-12, placebo 3 (16.7)", "result": "1 (3.3) n (% at risk)"}, {"measurement": "reduction in the 48 week rate of acute pulmonary exacerbations requiring any new antibiotic", "setting": "[2]; 20 mg BID, compared to placebo", "result": 82, "unit": "%"}, {"measurement": "reduction in the 48 week rate of acute pulmonary exacerbations requiring intravenous antibiotics", "setting": "[2]; 20 mg BID, compared to placebo", "result": 75, "unit": "%"}, {"measurement": "Acute pulmonary exacerbations requiring a new antibiotic, Subjects", "setting": "[2]; 20 mg, N = 20, Post-treatment, placebo 2 (22.2)", "result": "6 (30.0) n/N at risk (%)"}, {"measurement": "Acute pulmonary exacerbations requiring a new antibiotic, Subjects", "setting": "[2]; 20 mg, N = 25, Weeks 5-12, placebo 9 (50.0)", "result": "4 (16.0) n/N at risk (%)"}, {"measurement": "Acute pulmonary exacerbations requiring intravenous antibiotics, Subjects", "setting": "[2]; 20 mg, Weeks 5-12, placebo 3 (16.7)", "result": "3 (6.5) n (% at risk)"}, {"measurement": "subjects withdrawn due to adverse events", "setting": "[2]; 85 subjects dosed, 2 on placebo", "result": 3, "unit": "subjects"}, {"measurement": "occurrence of acute pulmonary exacerbations requiring treatment with any new antibiotic", "setting": "[2]; [4]", "result": "dose-dependent decrease"}, {"measurement": "occurrence of acute pulmonary exacerbations requiring treatment with intravenous antibiotics", "setting": "[2]; [4]", "result": "dose-dependent decrease"}, {"measurement": "related serious or severe treatment emergent adverse events", "setting": "[2]; adults with cystic fibrosis, 1-20 mg BID, 84 days", "result": "No related serious or severe treatment emergent adverse events"}]}
